Measurements published in PubChem BioAssay AID248 (DTP/NCI, 2004).
“And” between values parts separate entries of the source, which are not always exact repeats. Identical values can stand only once. Toxic doses and inconclusive results are not listed. Rule as the data show it: active = T/C of 150% or more; inactive = T/C below 125%.

Tested on: L1210 leukemia ip in BDF1 mice, survival T/C
Experiment: NCI In Vivo Anticancer Drug Screen. Data for tumor model L1210 Leukemia (intraperitoneal) in B6D2F1 (BDF1) mice
Details: endpoint: mean survival time, higher = longer survival
Method in brief: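 Read-out is survival time, reported as the treated-group measurement over the vehicle-control measurement.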

[1] = dose: 100.0 mg/kg/injection, schedule: Q04DX003 (ip), vehicle: saline with Tween-80
[2] = dose: 100.0 mg/kg/injection, schedule: Q01DX001 (ip), vehicle: saline with Tween-80
[3] = dose: 200.0 mg/kg/injection, schedule: Q01DX001 (ip), vehicle: saline with Tween-80
[4] = dose: 100.0 mg/kg/injection, schedule: Q01DX009 (ip), vehicle: Klucel (hydroxypropylcellulose) (HPC)
[5] = dose: 100.0 mg/kg/injection, schedule: Q04DX003 (ip), vehicle: Klucel (hydroxypropylcellulose) (HPC)
[6] = dose: 200.0 mg/kg/injection, schedule: Q01DX009 (ip), vehicle: Klucel (hydroxypropylcellulose) (HPC)
[7] = dose: 200.0 mg/kg/injection, schedule: Q04DX003 (ip), vehicle: Klucel (hydroxypropylcellulose) (HPC)
[8] = dose: 400.0 mg/kg/injection, schedule: Q01DX009 (ip), vehicle: Klucel (hydroxypropylcellulose) (HPC)
[9] = dose: 400.0 mg/kg/injection, schedule: Q04DX003 (ip), vehicle: Klucel (hydroxypropylcellulose) (HPC)
[10] = dose: 100.0 mg/kg/injection, schedule: Q04DX003 (ip), vehicle: saline
[11] = dose: 200.0 mg/kg/injection, schedule: Q04DX003 (ip), vehicle: saline
[12] = dose: 400.0 mg/kg/injection, schedule: Q04DX003 (ip), vehicle: saline

Measured: T/C

CSc1nc(Cl)cc(N2CC2)n1
inactive: dose: 0.39 mg/kg/injection, schedule: Q01DX009 (ip), vehicle: saline 106 % of control | dose: 0.78 mg/kg/injection, schedule: Q01DX009 (ip), vehicle: saline 97 % of control | dose: 0.78 mg/kg/injection, schedule: Q04DX003 (ip), vehicle: saline 107 % of control | dose: 1.56 mg/kg/injection, schedule: Q01DX001 (ip), vehicle: saline 101 % of control | dose: 1.56 mg/kg/injection, schedule: Q04DX003 (ip), vehicle: saline 101 % of control | dose: 3.12 mg/kg/injection, schedule: Q01DX001 (ip), vehicle: saline 101 % of control | dose: 59.0 mg/kg/injection, schedule: Q01DX Z (ip), vehicle: methylcellulose (MC) 94 % of control | dose: 88.0 mg/kg/injection, schedule: Q01DX Z (ip), vehicle: methylcellulose (MC) 93 % of control

Cc1cc2oc(=O)c3c(c2c(O)c1CN1CCCC1)CCCC3
inactive: dose: 100.0 mg/kg/injection, schedule: Q01DX001 (ip), vehicle: saline 92 % of control | dose: 200.0 mg/kg/injection, schedule: Q01DX001 (ip), vehicle: saline 89 % of control | dose: 400.0 mg/kg/injection, schedule: Q01DX001 (ip), vehicle: saline 98 % of control

CCN(CC)CCNC1CCCCC1
inactive: [1] 94 % of control

O=C1c2ccccc2C(=O)c2[nH]c(-c3ccccc3)cc21
inactive: [2] 94 % of control | [3] 94 % of control | dose: 400.0 mg/kg/injection, schedule: Q01DX001 (ip), vehicle: saline with Tween-80 94 % of control

O=C(C[n+]1ccc2ccccc2c1)c1cccs1
inactive: dose: 25.0 mg/kg/injection, schedule: Q04DX002 (ip), vehicle: Klucel (hydroxypropylcellulose) (HPC) 90 % of control and 91 % of control | dose: 50.0 mg/kg/injection, schedule: Q04DX002 (ip), vehicle: Klucel (hydroxypropylcellulose) (HPC) 95 % of control and 90 % of control | dose: 100.0 mg/kg/injection, schedule: Q04DX002 (ip), vehicle: Klucel (hydroxypropylcellulose) (HPC) 98 % of control

Cc1cc(OC(=O)/C=C/C(=O)Oc2cc(C)c(Cl)c(C)c2)cc(C)c1Cl
inactive: [4] 97 % of control | [5] 105 % of control | [6] 95 % of control | [7] 104 % of control | [8] 97 % of control | [9] 104 % of control

OCC1OC(OC2CCCCC2)C(O)C(O)C1O (configuration not stated)
inactive: [10] 100 % of control | [11] 96 % of control | [12] 102 % of control

CC(C)(C)c1cc(C(=S)N2CCN(C(=S)c3cc(C(C)(C)C)c(O)c(C(C)(C)C)c3)CC2)cc(C(C)(C)C)c1O
inactive: [5] 97 % of control | [7] 94 % of control | [9] 96 % of control

CCCCOP(=O)(OCCCC)C(O)CCC (configuration not stated)
inactive: [2] 93 % of control | [1] 104 % of control | [3] 93 % of control | dose: 200.0 mg/kg/injection, schedule: Q04DX003 (ip), vehicle: saline with Tween-80 98 % of control

CC(C)N(C(=O)C1C2CCC(CC2)C1C(=O)N(C(C)C)C(C)C)C(C)C (configuration not stated)
inactive: [10] 100 % of control | [11] 100 % of control | [12] 100 % of control

CC(C)=CCC(/C=N/N=C(N)N)C(C)C (configuration not stated)
inactive: dose: 3.0 mg/kg/injection, schedule: Q01DX Z (ip), vehicle: saline 96 % of control | dose: 7.0 mg/kg/injection, schedule: Q01DX Z (ip), vehicle: saline 105 % of control | dose: 15.0 mg/kg/injection, schedule: Q01DX Z (ip), vehicle: saline 91 % of control | dose: 15.0 mg/kg/injection, schedule: Q01DX Z (oral), vehicle: saline 104 % of control | dose: 30.0 mg/kg/injection, schedule: Q01DX Z (ip), vehicle: saline 94 % of control | dose: 30.0 mg/kg/injection, schedule: Q01DX Z (oral), vehicle: saline 101 % of control | dose: 60.0 mg/kg/injection, schedule: Q01DX Z (oral), vehicle: saline 87 % of control

O=[N+]([O-])c1c(O)cc(O)c2ccccc12
inactive: dose: 5.0 mg/kg/injection, schedule: Q01DX001 (ip), vehicle: saline 102 % of control | dose: 10.0 mg/kg/injection, schedule: Q01DX001 (ip), vehicle: saline 106 % of control | dose: 20.0 mg/kg/injection, schedule: Q01DX001 (ip), vehicle: saline 101 % of control | dose: 40.0 mg/kg/injection, schedule: Q01DX001 (ip), vehicle: saline 102 % of control | dose: 80.0 mg/kg/injection, schedule: Q01DX001 (ip), vehicle: saline 104 % of control

O=S(=O)(C1CCCCC1)C1CCCC1
inactive: [4] 97 % of control | [5] 102 % of control | [6] 100 % of control | [7] 105 % of control | [8] 107 % of control | [9] 107 % of control

c1ccc(CNc2ccccc2)cc1
inactive: dose: 100.0 mg/kg/injection, schedule: Q01DX009 (sc), vehicle: olive oil, sesame oil, peanut oil 95 % of control | dose: 100.0 mg/kg/injection, schedule: Q04DX003 (sc), vehicle: olive oil, sesame oil, peanut oil 94 % of control | dose: 200.0 mg/kg/injection, schedule: Q01DX009 (sc), vehicle: olive oil, sesame oil, peanut oil 92 % of control | dose: 200.0 mg/kg/injection, schedule: Q04DX003 (sc), vehicle: olive oil, sesame oil, peanut oil 102 % of control | dose: 400.0 mg/kg/injection, schedule: Q01DX009 (sc), vehicle: olive oil, sesame oil, peanut oil 100 % of control | dose: 400.0 mg/kg/injection, schedule: Q04DX003 (sc), vehicle: olive oil, sesame oil, peanut oil 105 % of control

COC(=O)NS(=O)(=O)Nc1ccccc1
inactive: dose: 100.0 mg/kg/injection, schedule: Q04DX002 (ip), vehicle: saline with Tween-80 97 % of control | dose: 200.0 mg/kg/injection, schedule: Q04DX002 (ip), vehicle: saline with Tween-80 87 % of control | dose: 400.0 mg/kg/injection, schedule: Q04DX002 (ip), vehicle: saline with Tween-80 94 % of control

S=C([S-])N1CCN(c2ccccc2)CC1.S=C([S-])N1CCN(c2ccccc2)CC1.[Zn]
inactive: [10] 89 % of control | [11] 95 % of control and 88 % of control | [12] 90 % of control

N/C(=N/N=C/c1ccccc1O)N/N=C\c1ccccc1O
inactive: dose: 15.0 mg/kg/injection, schedule: Q01DX Z (ip), vehicle: carboxymethylcellulose (CMC) 93 % of control | dose: 30.0 mg/kg/injection, schedule: Q01DX Z (ip), vehicle: carboxymethylcellulose (CMC) 92 % of control | dose: 60.0 mg/kg/injection, schedule: Q01DX Z (ip), vehicle: carboxymethylcellulose (CMC) 97 % of control and 89 % of control | dose: 120.0 mg/kg/injection, schedule: Q01DX Z (ip), vehicle: carboxymethylcellulose (CMC) 92 % of control and 100 % of control | dose: 240.0 mg/kg/injection, schedule: Q01DX Z (ip), vehicle: carboxymethylcellulose (CMC) 100 % of control | dose: 240.0 mg/kg/injection, schedule: Q01DX Z (oral), vehicle: carboxymethylcellulose (CMC) 105 % of control | dose: 480.0 mg/kg/injection, schedule: Q01DX Z (ip), vehicle: carboxymethylcellulose (CMC) 94 % of control | dose: 480.0 mg/kg/injection, schedule: Q01DX Z (oral), vehicle: carboxymethylcellulose (CMC) 105 % of control | dose: 960.0 mg/kg/injection, schedule: Q01DX Z (oral), vehicle: carboxymethylcellulose (CMC) 105 % of control | dose: 1920.0 mg/kg/injection, schedule: Q01DX Z (oral), vehicle: carboxymethylcellulose (CMC) 113 % of control
